Experiment [1] concerns interferon-α production in hPBMCs. Put plainly: Induction of interferon-α production in hPBMCs. In kind it is cell-based, human. The conditions noted are these: interferon-α production from hPBMCs; for Weighted MEC: geometric mean of all individual MECs across all donors, 24 hours; for individual MEC values: per donor. The protocol: Treatment of hPBMCs with a TLR7 agonist typically induces substantial production of interferon-α as well as lesser amounts of a variety of other cytokines and chemokines. A typical experiment uses hPBMCs isolated from a healthy donor and placed in replicate cell culture wells; typically 1.0-7.5×10^6 cells are placed in each well. Test compound is added and the cells cultured for 24 hours at 37° C. in a humidified atmosphere containing 5% CO2 post-addition; untreated controls are included. Secreted interferon-α production is measured using an a multisubtype interferon-α ELISA kit like those from PBL Assay Sciences or specifically as IFNα2a as part of a panel of cytokines and chemokines using luminex methodologies. The minimal effective concentration (MEC) is the minimum concentration in a dose response curve where a significant increase in interferon-α production (generally at least 20 pg/ml) is observed above baseline. MEC values for each compound are determined for at least three donors. The weighted MEC for each compound is the geometric mean of all individual MECs across all donors. Concentrations tested typically consist of a two-fold dilution series starting at 100 μM. In the calculation of weighted MEC, any value >100 μM is arbitrarily set to 200 μM unless all MECs for a compound exceed 100 μM

A further experiment has as its target human TLR7 (Homo sapiens (Human), UniProt Q9NYK1). The experiment is described as follows: TLR7 reporter assay (HEK293-TLR-NF-κB inducible SEAP reporter). In kind it is cell-based. The conditions noted are these: HEK293 cells stably expressing human TLR7 with NF-κB-driven SEAP reporter; 15-24 hours. An excerpt: The engagement of TLRs by cognate ligands triggers downstream signaling cascades, leading to the activation of NF-κB and other transcription factors which initiate various immunomodulatory effects. The human embryonic kidney cell line, HEK293, is essentially non-responsive to TLR agonists, but ectopic expression of TLRs in these cells allows cognate agonists to activate endogenous NF-κB. Accordingly, the HEK293-TLR-NF-κB inducible reporter system is used to assay TLR agonists. HEK293 cell lines stably expressing human TLR7 or TLR8 together with an NF-κB-driven-secreted alkaline phosphatase (SEAP) reporter were invented at InvivoGen (San Diego, Calif., USA) and used to assess compounds of the present invention for TLR7 and TLR8 agonist activities. Cells were seeded at 2-5×10^4 cells/well in 96 well plates ([…]) and treated with various concentrations of compound (10 μl) for 15-24 hours. SEAP activity was determined by measuring OD at 650 nm; the media used to culture the cell lines contains the reagents required for SEAP detection. The EC50 values in Table 2 are calculated from fitting the dose response of measured SEAP activity for each compound to the following equation: Y=ymax*c^nh/(EC50^nh+c^nh)+blank where Y is the experimentally measured OD650 at concentration c of test article, blank is the observed OD650 in the absence of TLR7 agonist, ymax is the difference between the measured OD650 in the presence of either 28.5 μM resiquimod or 1.675 μM CL307 and the blank and values of EC50 and nh are determined by nonlinear least squares analysis.

pEC50: −log10 of the molar value. Values joined by “and” are separate entries in the source; they are usually repeats but may differ in a detail not shown here. Equal entries are not always repeated. Structures can show the parent of a compound that is named as a salt. Marks after values point to notes of the source that are not given here.

human TLR7, sequence (Q9NYK1 27-1049): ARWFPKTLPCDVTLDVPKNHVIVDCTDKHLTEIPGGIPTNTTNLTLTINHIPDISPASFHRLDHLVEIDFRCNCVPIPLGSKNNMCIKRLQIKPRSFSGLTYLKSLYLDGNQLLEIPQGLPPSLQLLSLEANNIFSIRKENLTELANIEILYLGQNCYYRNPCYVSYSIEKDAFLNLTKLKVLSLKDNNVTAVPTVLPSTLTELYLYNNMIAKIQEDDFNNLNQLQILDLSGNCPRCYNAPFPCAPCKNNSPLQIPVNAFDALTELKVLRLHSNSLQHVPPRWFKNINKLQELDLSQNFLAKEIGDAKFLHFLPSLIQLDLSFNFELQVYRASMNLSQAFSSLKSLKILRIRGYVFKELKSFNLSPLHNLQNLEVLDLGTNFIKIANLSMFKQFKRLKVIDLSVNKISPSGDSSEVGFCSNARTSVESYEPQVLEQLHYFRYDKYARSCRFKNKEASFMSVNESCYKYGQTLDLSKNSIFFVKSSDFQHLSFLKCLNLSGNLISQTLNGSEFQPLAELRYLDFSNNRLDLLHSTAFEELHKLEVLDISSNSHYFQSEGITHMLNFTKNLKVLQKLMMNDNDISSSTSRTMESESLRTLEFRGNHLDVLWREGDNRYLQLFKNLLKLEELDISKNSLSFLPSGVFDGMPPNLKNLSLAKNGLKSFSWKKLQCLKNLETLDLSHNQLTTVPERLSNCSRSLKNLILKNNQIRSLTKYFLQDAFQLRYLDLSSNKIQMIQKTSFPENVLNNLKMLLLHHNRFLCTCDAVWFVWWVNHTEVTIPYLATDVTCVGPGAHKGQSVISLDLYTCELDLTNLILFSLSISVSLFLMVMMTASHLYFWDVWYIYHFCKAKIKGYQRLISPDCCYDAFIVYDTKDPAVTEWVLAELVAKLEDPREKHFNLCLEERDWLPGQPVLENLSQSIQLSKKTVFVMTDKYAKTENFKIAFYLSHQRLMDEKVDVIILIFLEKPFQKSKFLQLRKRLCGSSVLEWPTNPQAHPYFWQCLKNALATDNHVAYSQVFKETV

`COC(=O)CCCn1c(=O)n([C@@H]2O[C@H](CO)[C@H](O)[C@H]2O)c2nc(N)[nH]c(=O)c21` [Compound 21, Methyl 4-(2-amino-9-((2R,3R,4R,5R)-3,4-dihydroxy-5-(hydroxymethyl)tetrahydrofuran-2-yl)-6,8-dioxo-1,6,8,9-tetrahydro-7H-purin-7-yl)butanoate]: the “Weighted MEC” value in experiment [1] is >100* μM. The same compound showed a pEC50 on human TLR7 of 3.28.
`C=CCn1c(=O)n([C@@H]2O[C@H](CO)[C@H](O)[C@H]2O)c2nc(N)[nH]c(=O)c21` [Compound 2, 7-Allyl-2-amino-9-((2R,3R,4R,5R)-3,4-dihydroxy-5-(hydroxymethyl)tetrahydrofuran-2-yl)-7,9-dihydro-1H-purine-6,8-dione]: in experiment [1], the “Weighted MEC” value was 79 µM. In addition, on human TLR7, the pEC50 is 3.53.
Regarding `NCCn1c(=O)n([C@@H]2O[C@H](CO)[C@H](O)[C@H]2O)c2nc(N)[nH]c(=O)c21` [Compound 23, 2-Amino-7-(2-aminoethyl)-9-((2R,3R,4R,5R)-3,4-dihydroxy-5-(hydroxymethyl)tetrahydrofuran-2-yl)-7,9-dihydro-1H-purine-6,8-dione hydrochloride], the pEC50 on human TLR7 was less than 3.30.
For `CCCCn1c(=O)n([C@@H]2O[C@H](CO)C[C@H]2O)c2nc(N)[nH]c(=O)c21` [Compound 37, 2-Amino-7-butyl-9-((2R,3R,5S)-3-hydroxy-5-(hydroxymethyl)tetrahydrofuran-2-yl)-7,9-dihydro-1H-purine-6,8-dione], the “Weighted MEC” value in experiment [1] was found to be 50 µM. At human TLR7, this compound gave a negative logarithm of the EC50 (pEC50) of 3.25.
On to `Nc1nc2c(c(=O)[nH]1)n(CCCC(=O)O)c(=O)n2[C@@H]1O[C@H](CO)[C@H](O)[C@H]1O` [Compound 20, 4-(2-Amino-9-((2R,3R,4R,5R)-3,4-dihydroxy-5-(hydroxymethyl)tetrahydrofuran-2-yl)-6,8-dioxo-1,6,8,9-tetrahydro-7H-purin-7-yl)butanoic Acid], for which the “Weighted MEC” value in experiment [1] is on record as >100* μM. The compound further gave a pEC50 on human TLR7 of 4.10.
As for `COC(=O)Cn1c(=O)n([C@@H]2O[C@H](CO)[C@H](O)[C@H]2O)c2nc(N)[nH]c(=O)c21` [Compound 12, Methyl 2-(2-amino-9-((2R,3R,4R,5R)-3,4-dihydroxy-5-(hydroxymethyl)tetrahydrofuran-2-yl)-6,8-dioxo-1,6,8,9-tetrahydro-7H-purin-7-yl)acetate], in experiment [1], the “Weighted MEC” value is on record as >100* μM. This compound also gave a pEC50 on human TLR7 of 3.39.
The compound `Cn1c(=O)n([C@@H]2O[C@H](CO)[C@H](O)[C@H]2O)c2nc(N)[nH]c(=O)c21` [Compound 15, 2-Amino-9-((2R,3R,4R,5R)-3,4-dihydroxy-5-(hydroxymethyl)tetrahydrofuran-2-yl)-7-methyl-7,9-dihydro-1H-purine-6,8-dione] showed a pEC50 on human TLR7 of less than 3.30.
Consider `CCn1c(=O)n([C@@H]2O[C@H](CO)[C@H](O)[C@H]2O)c2nc(N)[nH]c(=O)c21` [Compound 16, 2-Amino-9-((2R,3R,4R,5R)-3,4-dihydroxy-5-(hydroxymethyl)tetrahydrofuran-2-yl)-7-ethyl-7,9-dihydro-1H-purine-6,8-dione], for which the “Weighted MEC” value in experiment [1] is >100* μM. The pEC50 at human TLR7 is 3.27.
For `CC#CCn1c(=O)n([C@@H]2O[C@H](CO)[C@H](O)[C@H]2O)c2nc(N)[nH]c(=O)c21` [Compound 6, 2-Amino-7-(but-2-yn-1-yl)-9-((2R,3R,4R,5R)-3,4-dihydroxy-5-(hydroxymethyl)tetrahydrofuran-2-yl)-7,9-dihydro-1H-purine-6,8-dione], in experiment [1], the “Weighted MEC” value came to 79 µM. The compound further gave a pEC50 on human TLR7 of 3.08.
The corresponding values for `Nc1nc2c(c(=O)[nH]1)n(Cc1ccccc1)c(=O)n2[C@@H]1O[C@H](CO)C[C@H]1O` [Compound 33, 2-Amino-7-benzyl-9-((2R,3R,5S)-3-hydroxy-5-(hydroxymethyl)tetrahydrofuran-2-yl)-7,9-dihydro-1H-purine-6,8-dione] are 79* μM and 3.16.
In the case of `Nc1nc2c(c(=O)[nH]1)n(C/C=C/CO)c(=O)n2[C@@H]1O[C@H](CO)[C@H](O)[C@H]1O` [Compound 8, 2-Amino-9-((2R,3R,4R,5R)-3,4-dihydroxy-5-(hydroxymethyl)tetrahydrofuran-2-yl)-7-((E)-4-hydroxybut-2-en-1-yl)-7,9-dihydro-1H-purine-6,8-dione], the “Weighted MEC” value in experiment [1] is >100* μM. The compound further gave a pEC50 at human TLR7 of 3.38.
As to `Nc1nc2c(c(=O)[nH]1)n(Cc1ccc(C(F)(F)F)cc1)c(=O)n2[C@@H]1O[C@H](CO)C[C@H]1O` [Compound 35, 2-Amino-9-((2R,3R,5S)-3-hydroxy-5-(hydroxymethyl)tetrahydrofuran-2-yl)-7-(4-(trifluoromethyl)benzyl)-7,9-dihydro-1H-purine-6,8-dione], the “Weighted MEC” value in experiment [1] is given as 79* μM. The pEC50 on human TLR7 was 2.94.
For the compound `CCCCn1c(=O)n([C@@H]2O[C@H](CO)[C@H](O)[C@H]2O)c2nc(N)[nH]c(=O)c21` [Compound 18, 2-Amino-7-butyl-9-((2R,3R,4R,5R)-3,4-dihydroxy-5-(hydroxymethyl)tetrahydrofuran-2-yl)-7,9-dihydro-1H-purine-6,8-dione], in experiment [1], the “Weighted MEC” value is “less than or equal to 40 μM and 37 μM”; the “individual MEC values” is less than 100 µM. The pEC50 on human TLR7 was 3.48.
Regarding `Nc1nc2c(c(=O)[nH]1)n(C/C=C/C(=O)O)c(=O)n2[C@@H]1O[C@H](CO)[C@H](O)[C@H]1O` [Compound 9, (E)-4-(2-Amino-9-((2R,3R,4R,5R)-3,4-dihydroxy-5-(hydroxymethyl)tetrahydrofuran-2-yl)-6,8-dioxo-1,6,8,9-tetrahydro-7H-purin-7-yl)but-2-enoic Acid], in experiment [1], the “Weighted MEC” value was >100* μM. The compound further had a pEC50 on human TLR7 of 4.82.
As for `COCCn1c(=O)n([C@@H]2O[C@H](CO)[C@H](O)[C@H]2O)c2nc(N)[nH]c(=O)c21` [Compound 22, 2-Amino-9-((2R,3R,4R,5R)-3,4-dihydroxy-5-(hydroxymethyl)tetrahydrofuran-2-yl)-7-(2-methoxyethyl)-7,9-dihydro-1H-purine-6,8-dione], the “Weighted MEC” value in experiment [1] is >100* μM. In addition, on human TLR7, the pEC50 is 3.25.
On the same counts, the results for `Nc1nc2c(c(=O)[nH]1)n(CC(F)F)c(=O)n2[C@@H]1O[C@H](CO)[C@H](O)[C@H]1O` [Compound 14, 2-Amino-7-(2,2-difluoroethyl)-9-((2R,3R,4R,5R)-3,4-dihydroxy-5-(hydroxymethyl)tetrahydrofuran-2-yl)-7,9-dihydro-1H-purine-6,8-dione] are 100* μM and 3.74.
Consider `COC(=O)/C=C/Cn1c(=O)n([C@@H]2O[C@H](CO)[C@H](O)[C@H]2O)c2nc(N)[nH]c(=O)c21` [Compound 10, Methyl (E)-4-(2-amino-9-((2R,3R,4R,5R)-3,4-dihydroxy-5-(hydroxymethyl)tetrahydrofuran-2-yl)-6,8-dioxo-1,6,8,9-tetrahydro-7H-purin-7-yl)but-2-enoate], for which the “Weighted MEC” value in experiment [1] is given as >100* μM. On human TLR7, this compound showed a pEC50 of 3.61.
`Nc1nc2c(c(=O)[nH]1)n(CC#CCO)c(=O)n2[C@@H]1O[C@H](CO)[C@H](O)[C@H]1O` [Compound 11, 2-Amino-9-((2R,3R,4R,5R)-3,4-dihydroxy-5-(hydroxymethyl)tetrahydrofuran-2-yl)-7-(4-hydroxybut-2-yn-1-yl)-7,9-dihydro-1H-purine-6,8-dione]: the “Weighted MEC” value in experiment [1] stood at 79 µM. For the same compound, the pEC50 on human TLR7 is 3.60.
On to `Nc1nc2c(c(=O)[nH]1)n(Cc1cccc(F)c1)c(=O)n2[C@@H]1O[C@H](CO)C[C@H]1O` [Compound 34, 2-Amino-7-(3-fluorobenzyl)-9-((2R,3R,5S)-3-hydroxy-5-(hydroxymethyl)tetrahydrofuran-2-yl)-7,9-dihydro-1H-purine-6,8-dione], for which, in experiment [1], the “Weighted MEC” value was “less than or equal to 40 μM and 40 μM”; the “individual MEC values” is less than 100 µM. At human TLR7, the pEC50 was 3.29.
For the compound `C=CCn1c(=O)n([C@@H]2O[C@H](CO)C[C@H]2O)c2nc(N)[nH]c(=O)c21` [Compound 36, 7-Allyl-2-amino-9-((2R,3R,5S)-3-hydroxy-5-(hydroxymethyl)tetrahydrofuran-2-yl)-7,9-dihydro-1H-purine-6,8-dione], the “Weighted MEC” value in experiment [1] amounted to 100 µM. On human TLR7, this compound gave a pEC50 of 2.92.

The record behind these values is patent publication US11059824B2, “Substituted purines as TLR7 agonists” (Primmune Therapeutics, Inc., priority 2018, dated 2021).
